# Measurements as given in the NIST ThermoML archive (doi:10.1021/acs.jced.6b00180).
# Numbers after ± are expanded uncertainties.
# Tests used:
# [1] = Liquid, Ebulliometric method (Recirculating still)
# [2] = refractive index (Na D-line) (dimensionless); settings: 293.15 K; 101.33 kPa; Liquid; Standard Abbe refractometry
# [3] = Boiling temperature at pressure P; settings: 101.33 kPa; Liquid; Ebulliometric method (Recirculating still)
Compound,refractive index [2],Boiling temperature at pressure P [3],further results
"C=CC(=C)C [2-methyl-1,3-butadiene]",1.4218 ± 0.0005,–,vapor or sublimation pressure ([1]; 336.35 K): 250 ± 13 kPa
CC=C(C)C [2-methyl-2-butene],1.3876 ± 0.0005,–,vapor or sublimation pressure ([1]; 341.15 K): 250 ± 13 kPa
CCC(C)C [2-methylbutane],1.3535 ± 0.0005,–,vapor or sublimation pressure ([1]; 330.05 K): 250 ± 13 kPa
CC(C)=O [acetone],1.3586 ± 0.0005,56.2 ± 1 °C,vapor or sublimation pressure ([1]; 329.35 K): 101.3 ± 5.1 kPa
C1CCCC1 [cyclopentane],1.4064 ± 0.0005,–,vapor or sublimation pressure ([1]; 352.85 K): 250 ± 13 kPa
C1=CCCC1 [cyclopentene],1.4224 ± 0.0005,–,vapor or sublimation pressure ([1]; 347.35 K): 250 ± 13 kPa
CCO [ethanol],1.3613 ± 0.0005,78.4 ± 1 °C,vapor or sublimation pressure ([1]; 351.55 K): 101.3 ± 5.1 kPa
CCCCCC [hexane],1.3748 ± 0.0005,–,–
CO [methanol],1.3286 ± 0.0005,64.7 ± 1 °C,–
CCCCC [pentane],1.3578 ± 0.0005,–,vapor or sublimation pressure ([1]; 338.35 K): 250 ± 13 kPa
